We go through seven compounds from PubChem BioAssay (NCI).

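Method: 48-hour compound exposure of cells in 96-well plates, five concentrations, linear interpolation of endpoints. Here, GI50 denotes the concentration required for 50% inhibition of growth. TGI: concentration producing complete growth inhibition.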 A value given as a limit tells only on which side of the number the result lay.

Common to all, as to assay: inhibition of tumour cell growth, NCI panel, 48 h
For test [1], the system named is HL-60(TB) leukemia.
Test [2] deals with HOP-62 NSCLC.
In test [3] the test system is HOP-92 NSCLC.
For test [4], the system named is NCI-H522 lung.
Test [5] deals with NCI-H460 lung.
Test [6] has as its system LOX IMVI melanoma.
The subject of test [7] is RXF 393 renal.
The subject of test [8] is SF-295 CNS.
Test [9] deals with UO-31 renal.
Test [10] relates to OVCAR-3 ovarian.

`Nc1ccn(C2OC(CO)C(O)C2O)c(=O)c1` (stereo unspecified): the TGI in test [1] was over 625 µM; in test [2], 403 µM; in [3] it was over 625 µM; in test [4], over 625 µM; in test [5], over 625 µM; in [6] it was 446 µM. Moreover, the TGI in [7], in test [8], in test [9] and in [10] was over 625 µM each time.
For the compound `CN1C2CCC1CC(C)(O)C2` (stereo unspecified), the TGI in [1], in [2], in test [5], in test [6], in [7] and in [8] was over 100 µM throughout. The TGI in [9] and in test [10] was over 100 µM each time.
Turning to `COc1ccc(-c2nn(-c3ccc(NC(=O)Nc4cc(C(F)(F)F)cc(C(F)(F)F)c4)cc3)cc2-c2ccncc2)cc1Cl`, the GI50 in test [1] was 2.5 µM; in test [2], 3.68 µM; in [3], 1.06 µM; in [4] it was 1.9 µM; in test [5], 1.91 µM; in [6] it was 3.31 µM. Besides, the GI50 in test [7] is 1.69 µM; in test [8] it was 2.52 µM; in test [9], 1.51 µM; in [10], 2.32 µM. Also, the TGI in [1] is 6.58 µM; in test [2] it was 15.1 µM; in test [3], 4.35 µM; in test [4] it was 7.01 µM; in [5] it was 5.95 µM; in [6], over 100 µM. Besides, the TGI in test [7] was 3.87 µM; in test [8], over 100 µM; in [9], 6.33 µM; in test [10], 8.85 µM.
With `COc1ccc(N2C(=O)CSC2c2c[nH]c3ccccc23)cc1` (stereo unspecified), the TGI in test [1] was over 100 µM; in [2], over 100 µM; in [3], over 100 µM; in test [4], 84.9 µM; in test [5], over 100 µM; in test [6] it was over 100 µM. Also, the TGI in [7], in test [8], in test [9] and in test [10] was over 100 µM throughout.
Take `O=C(N/N=C/c1cc(Br)cc(Br)c1[O-])c1ccccc1O.O=C(N/N=C/c1cc(Br)cc(Br)c1[O-])c1ccccc1O.[Cu+2]`: the TGI worked out at 0.359 µM in test [1]; 0.845 µM in test [2]; 1.28 µM in test [3]; 0.59 µM in [4]; 13.6 µM in [5]; 1.61 µM in test [6]. The TGI stood at 0.926 µM in test [7], 1.24 µM in [8], 1.5 µM in test [9] and 0.702 µM in [10].
`COc1ccc(C2COc3cc(O)c(O)cc3C2)cc1` (stereo unspecified): the TGI worked out at 5.41 µM in test [1]; 232 µM in test [2]; 24 µM in test [3]; 14.1 µM in test [4]; 213 µM in test [5]; 500 µM in test [6]. Further, the TGI is 20.3 µM in test [7], 205 µM in [8], 279 µM in test [9] and 28.1 µM in test [10].
On to `O=c1c(C(c2ccc(Cl)cc2)c2c(O)c3ccccc3n(-c3ccccc3)c2=O)c(O)c2ccccc2n1-c1ccccc1`, for which the TGI in test [2], in [3], in test [4], in test [6], in test [7] and in test [8] was over 100 µM each time. Besides, the TGI in test [9] and in [10] was over 100 µM each time.
